Data: patent publication US20070037875A1, “Genistein inhibition of transthyretin amyloidosis” (The Scripps Research Institute, priority 2005, published 2007)
Like-named read-outs stand apart in the source and are kept apart here.

Experiments:
[1] = cited from earlier work
[2] = target: TTR in human blood plasma (Homo sapiens, UniProt P02766); assay: Plasma selectivity binding to TTR, antibody capture/HPLC method; details: 10.8 μM compound in human plasma, 37° C., 18 h; maximum 2.0; lower limit because of wash losses
[3] = system: Caco-2 cells; details: Caco-2 cells and perfused rat intestinal models; cited from earlier work
[4] = target: T1, WT TTR (Homo sapiens, UniProt P02766); assay: Isothermal titration calorimetry; assay type: binding
T1 construct: made in house; host or cells: E. coli
Protocol: The dissociation constants characterizing the binding of genistein to WT TTR were determined using a Microcal isothermal titration calorimeter (Microcal Inc., Northhampton, Mass.). A solution of the small molecule (final concentration 432 μM in 25 mM Tris (pH 8.0) containing 100 mM KCl, 1 mM EDTA, 10% EtOH,) was prepared and titrated into an ITC cell containing WT TTR (12 μM in 25 mM Tris (pH 8.0) containing 100 mM KCl, 1 mM EDTA, 10% EtOH). For all runs, a small preliminary injection was followed by identical injections (2.0-5.0 μL) up to a ligand:protein molar ratio of at least 4:1. The data were fit by a nonlinear least squares approach to either an identical binding sites model, or a sequential interacting binding sites model (Foss, T. R.; et al. J. Mol. Biol. 2005, in press) utilizing Microsoft Excel (Microsoft Corporation, Redmond, Wash.) with the Solver plugin.
Isothermal titration calorimetry was employed to determine the dissociation constants of the binding of genistein to WT TTR at pH 8.0 (25° C.). Integration of the thermogram after subtraction of blanks yielded a binding isotherm that fit equally well to a model of two sequential interacting binding sites with negative cooperativity or two identical non-interacting sites. The fit to sequential binding sites yielded dissociation constants of Kd1=40±25 nM, Kd2=1400±170 nM. Fitting the data to identical binding sites gave Kd1=Kd2=845±45 nM with an occupancy of 1.92±0.07.

[5] = even at the relatively high concentrations employed; cited from earlier work
[6] = target: T1, WT TTR; assay: Urea-mediated tetramer dissociation by far-UV circular dichroism; assay type: biochemical; details: WT TTR 1.8 μM, 6.0 M urea, after 120 h
Protocol: (§1) TTR (400 μL, 0.25 mg/mL; 4.5 μM tetramer) was pre-incubated with genistein at concentrations of either 4.5 or 9.0 μM for 18 h at 25° C. Urea (10M, 600 μL) in 50 mM phosphate buffer (pH 7.0) containing 100 mM KCl, 1 mM EDTA and 1 mM DTT was added to the samples immediately prior to the first measurement (1.0 mL total volume, 6.0 M urea, 0.1 mg/mL TTR (1.8 μM tetramer) final concentration). Circular dichroism spectra were recorded as a function of time up to 120 h (25° C.) using a wavelength scan from 220 to 214 nm, sampling every 0.5 nm. The signal from 218 to 215 was averaged and plotted to determine the fraction of TTR tetramer that was dissociated and unfolded at each time point.
(§2) Genistein was further tested for its ability to kinetically stabilize tetrameric TTR against urea-induced dissociation. Since dissociation of the tetramer is required for urea-induced monomer denaturation, it is possible to monitor rate-limiting tetramer dissociation by linking this process to fast monomer unfolding in a post-transition urea concentration (6 M), rendering the process irreversible. The rate and extent of tetramer dissociation at different small molecule concentrations was monitored by far-UV CD spectroscopy in 6.0 M urea. Genistein exerts its most dramatic effect on the amplitude of WT TTR tetramer dissociation (FIG. 4A). At equimolar amounts of genistein and WT TTR (1.8 μM), only 10% of the protein dissociates and unfolds after 120 h, implying that the remainder is stabilized as a consequence of small molecule binding. This compares to 33% of dissociation for V122I (FIG. 4C, triangles) and 87% V30M (FIG. 4B, triangles) dissociating under identical conditions. When the inhibitor concentration (3.6 μM) is twice that of TTR (1.8 μM), only 1% of WT TTR (FIG. 4A, diamonds), 18% of V122I (FIG. 4C, diamonds), and 70% of V30M (FIG. […]) dissociates over the same time period.
(§3) FIG. 4 illustrates a series of graphs showing the rate of urea-mediated tetramer dissociation (6 M) curves for (A) WT (circles), (B) V30M, and (C) V122I TTR. TTR dissociation is slowed dramatically when WT and the variants are preincubated with genistein (1.8 μM, triangles; 3.6 μM, diamonds). The far-UV CD ellipticity at 214-218 nm was compared to that of WT to determine the fraction of TTR that dissociated and rapidly unfolded at each time point.

[7] = target: T2, V122I TTR (Homo sapiens, UniProt P02766, V142I); assay: as above; assay type: biochemical; details: V122I TTR 1.8 μM, 6.0 M urea, after 120 h
T2 construct: made in house; host or cells: E. coli
Protocol: as §1, §2, §3

[8] = target: T3, V30M TTR (Homo sapiens, UniProt P02766, V50M); assay: as above; assay type: biochemical; details: V30M TTR 1.8 μM, 6.0 M urea, after 120 h
T3 construct: made in house; host or cells: E. coli
Protocol: as §1, §2, §3

[9] = target: T1, WT TTR; assay: Stagnant transthyretin aggregation (fibril formation) assay, turbidity; assay type: biochemical
Protocol: Stagnant aggregation assays were performed as described previously (Lashuel, H. A.; et al. Biochemistry 1999, 38, 13560-13573). A 0.495 mL sample of TTR (7.6 μM (0.4 mg/mL) in 10 mM sodium phosphate, 100 mM KCl, and 1 mM EDTA at pH 7.0) was incubated with 5 μL of isoflavone or flavone inhibitor in DMSO (0.76 mM or 1.44 mM). After 30 min, the samples were diluted with 0.5 mL of 200 mM acetate buffer (pH 4.2, final pH 4.4 for WT and V122I, pH 4.8, final pH 5.0 for V30M) containing 100 mM KCl and 1 mM EDTA. Samples were briefly vortexed and then further incubated at 37° C. for 72 h without stirring. The extent of aggregation was probed by turbidity measurements at 350 and 400 nm on an HP 8453 UV-visible spectrometer. Single-time point samples (72 h) were vortexed immediately before the measurement.
Aggregate formation is reported relative to WT or mutant TTR homotetramer where amount of aggregation in the absence of inhibitor is assigned to be 100%.
Blue bars represent data from an aggregate formation assay wherein tetrameric TTR (3.6 μM) is preincubated with inhibitor (3.6 μM or 7.2 μM) for 30 min prior to lowering the pH to 4.4 (72 h). The Y axis in each bar graph (optical density at 350 nm) represents aggregate formation relative to WT TTR (3.6 μM) assigned as 100%.

In the case of `O=c1c(-c2ccc(O)cc2)coc2cc(O)cc(O)c12` [genistein], the “in vivo plasma concentrations of genistein” value ([1]; dose of 16 mg/kg of body weight, oral) is given as 0.1 to 8 µM, the half-life in plasma ([1]; men) is given as 3.2 h and the half-life in plasma ([1]; women) is given as 3.8 h. For the same molecule, the “plasma selectivity: binding stoichiometry to TTR” value [2] was 1.45 equivalents per tetramer, the intestinal absorption [3] was “efficiently absorbed into the intestine” and the Kd ([4]; Kd1, two sequential interacting binding sites model (negative cooperativity), pH 8.0, 25° C.) was 40 nM. It also gave a Kd ([4]; Kd1=Kd2, two identical non-interacting sites model, pH 8.0, 25° C.) of 845 nM, a Kd ([4]; read-out: Kd2, negative cooperativity, ITC) of 1400 nM and a Kd ([4]; read-out: Kd2, two sequential interacting binding sites model (negative cooperativity), pH 8.0, 25° C.) of 1400 nM. The “adverse health effects in toxicity studies” value [5] was “does not appear to cause adverse health effects”, the “protein that dissociates and unfolds” value ([6]; genistein 1.8 μM) was 10% and the “protein that dissociates and unfolds” value ([6]; genistein 3.6 μM) was 1%. The “protein that dissociates and unfolds” value ([7]; genistein 1.8 μM) was 33%, the “protein that dissociates and unfolds” value ([7]; genistein 3.6 μM) was 18% and the “protein that dissociates and unfolds” value ([8]; genistein 1.8 μM) was 87%. For the same molecule, the “protein that dissociates and unfolds” value ([8]; genistein 3.6 μM) was 70%.

For `O=c1c(-c2ccc(O)cc2)coc2cc(O)ccc12` [daidzein, reference compound], the “plasma selectivity: binding stoichiometry to TTR” value [2] was no less than 0.75 equivalents per tetramer and the “decrease in aggregation inhibition potency relative to genistein” value ([9]; inhibitor 7.2 μM, twice that of TTR) was “approximately 4 fold”.

For `O=c1c(-c2ccc(O)cc2)coc2cc(O[C@@H]3O[C@H](CO)[C@@H](O)[C@H](O)[C@H]3O)cc(O)c12` [genistin, reference compound], the “permeability, lower than corresponding aglycone (genistein)” value [3] is listed as “approximately 5 fold”.

In the case of `O=c1cc(-c2ccc(O)cc2)oc2cc(O)cc(O)c12` [apigenin], the “decrease in WT TTR aggregation inhibition relative to genistein” value ([9]; pH 4.4) is reported as 2 fold.
